The target in data set [1] is T1, Cytochrome P450 1A2 (Homo sapiens, UniProt P05177).
T1 sequence (P05177 whole entry): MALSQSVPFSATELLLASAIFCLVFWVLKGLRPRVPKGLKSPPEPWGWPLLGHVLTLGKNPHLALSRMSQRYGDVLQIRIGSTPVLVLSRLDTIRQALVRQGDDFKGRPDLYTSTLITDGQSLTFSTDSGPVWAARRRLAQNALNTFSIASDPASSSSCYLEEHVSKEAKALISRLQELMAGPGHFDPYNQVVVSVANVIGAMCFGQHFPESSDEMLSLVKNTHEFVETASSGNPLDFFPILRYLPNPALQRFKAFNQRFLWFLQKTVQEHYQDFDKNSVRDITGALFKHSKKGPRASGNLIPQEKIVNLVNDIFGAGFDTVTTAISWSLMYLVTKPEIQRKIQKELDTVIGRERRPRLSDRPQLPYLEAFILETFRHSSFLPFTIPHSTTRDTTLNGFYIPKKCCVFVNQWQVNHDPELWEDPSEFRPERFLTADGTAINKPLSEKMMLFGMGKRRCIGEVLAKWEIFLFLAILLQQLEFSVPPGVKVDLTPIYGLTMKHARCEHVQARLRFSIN
Put plainly: ChEBML_1684878. The protocol:
Competitive inhibition of human liver microsomes CYP1A2 expressed in supersomes coexpressing NADPH-CYP reductase using 7-Ethoxyresorufin as substrate measured every 5 mins for 30 mins in presence of NADPH by fluorescence assay

Data set [2] has as its target T2, Cytochrome P450 1B1 (Homo sapiens, UniProt Q16678).
T2 sequence (Q16678 whole entry): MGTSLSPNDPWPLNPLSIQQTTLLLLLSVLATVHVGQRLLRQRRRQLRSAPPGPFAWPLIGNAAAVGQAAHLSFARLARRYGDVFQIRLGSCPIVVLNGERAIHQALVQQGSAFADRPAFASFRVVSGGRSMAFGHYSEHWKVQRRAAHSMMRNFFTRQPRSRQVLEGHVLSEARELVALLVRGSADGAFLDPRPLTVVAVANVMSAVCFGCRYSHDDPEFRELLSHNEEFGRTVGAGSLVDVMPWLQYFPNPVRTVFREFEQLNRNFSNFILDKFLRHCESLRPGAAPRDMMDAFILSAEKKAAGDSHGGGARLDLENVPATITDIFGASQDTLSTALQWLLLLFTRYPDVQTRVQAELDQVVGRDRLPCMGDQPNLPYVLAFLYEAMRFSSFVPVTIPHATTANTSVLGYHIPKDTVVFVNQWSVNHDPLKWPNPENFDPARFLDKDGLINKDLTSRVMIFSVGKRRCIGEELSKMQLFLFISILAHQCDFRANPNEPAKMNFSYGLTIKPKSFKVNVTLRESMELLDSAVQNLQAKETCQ
Put plainly: Inhibition of CYP1B1 (unknown origin) expressed in Escherichia coli DH5alpha coexpressing human NADPH-P450 reductase using 7-Ethoxyresorufin as substrate up to 6 mins in presence of NADP+ by spectrofluorometric analysis.

For data set [3], the target named is T3, Cytochrome P450 1A1 (Homo sapiens, UniProt P04798).
T3 sequence (P04798 whole entry): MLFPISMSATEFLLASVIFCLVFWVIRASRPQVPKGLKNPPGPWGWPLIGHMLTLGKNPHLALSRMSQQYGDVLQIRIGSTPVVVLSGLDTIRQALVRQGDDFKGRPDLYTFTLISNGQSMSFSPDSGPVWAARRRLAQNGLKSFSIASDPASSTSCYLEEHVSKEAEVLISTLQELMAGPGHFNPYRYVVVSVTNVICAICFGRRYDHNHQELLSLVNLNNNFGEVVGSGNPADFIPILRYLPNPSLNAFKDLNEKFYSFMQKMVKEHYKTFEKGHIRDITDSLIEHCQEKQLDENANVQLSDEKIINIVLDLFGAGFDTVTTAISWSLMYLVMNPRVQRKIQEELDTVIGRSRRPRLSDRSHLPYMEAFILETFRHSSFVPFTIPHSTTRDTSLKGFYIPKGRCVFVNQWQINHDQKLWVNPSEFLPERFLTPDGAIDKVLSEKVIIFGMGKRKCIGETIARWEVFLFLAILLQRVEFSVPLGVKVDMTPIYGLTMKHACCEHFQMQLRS
Briefly: Inhibition of CYP1A1 (unknown origin) expressed in Escherichia coli DH5alpha coexpressing human NADPH-P450 reductase using 7-Ethoxyresorufin as substrate up to 6 mins in presence of NADP+ by spectrofluorometric analysis.

Data set [4] has as its target T2, Cytochrome P450 1B1. Put plainly: Inhibition of human CYP1B1 expressed in supersomes using ethoxyresorufin as substrate after 20 mins in presence of NADP by Dixon plot analysis.

One may read the IC50 as the point on the concentration scale where inhibition reaches its midpoint. As to `N#C[Se]Cc1cccc(C[Se]C#N)c1`, the 50% inhibitory concentration (IC50) worked out at 200 nM in data set [1], 130 nM in data set [2] and 100 nM in data set [3].

In general, Ki refers to the dissociation constant of the complex between target and ligand, obtained from inhibition or displacement. `C[C@]12CC[C@H]3[C@@H](CCC4=CC(=O)CC[C@@]43C)[C@@H]1CC[C@@H]2O` [Testosterone, 1]: the Ki in data set [4] was found to be 412000 nM.

Values taken from BindingDB's records for doi:10.1016/j.ejmech.2017.04.042 (Laval University, 2017).
